Key:
Experiment in all cases: IA-DTB cysteine engagement
Type in all cases: binding
Conditions in all cases: 22Rv1 cells, 20 μM probe, 1 h, relative to DMSO
[1] = biological target: T1, BLOC1S2_C41 (Homo sapiens, UniProt Q6QNY1)
T1 construct: endogenous in cells; host or cells: 22Rv1
T1 sequence (Q6QNY1 1-142): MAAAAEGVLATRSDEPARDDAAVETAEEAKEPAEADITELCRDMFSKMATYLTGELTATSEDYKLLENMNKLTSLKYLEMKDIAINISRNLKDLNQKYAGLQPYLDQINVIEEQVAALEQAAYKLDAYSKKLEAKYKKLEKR
Summary of the method: (§1)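 Competitive chemoproteomics: residual cysteine reactivity toward IA-DTB in lysates from probe-treated cells was quantified by TMT reporter ions relative to DMSO-treated controls. Replicates sharing cell line, probe, concentration and duration were averaged.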

[2] = biological target: T2, SUPT3H_C268 (Homo sapiens, UniProt O75486)
T2 construct: endogenous in cells; host or cells: 22Rv1
T2 sequence (O75486 1-317): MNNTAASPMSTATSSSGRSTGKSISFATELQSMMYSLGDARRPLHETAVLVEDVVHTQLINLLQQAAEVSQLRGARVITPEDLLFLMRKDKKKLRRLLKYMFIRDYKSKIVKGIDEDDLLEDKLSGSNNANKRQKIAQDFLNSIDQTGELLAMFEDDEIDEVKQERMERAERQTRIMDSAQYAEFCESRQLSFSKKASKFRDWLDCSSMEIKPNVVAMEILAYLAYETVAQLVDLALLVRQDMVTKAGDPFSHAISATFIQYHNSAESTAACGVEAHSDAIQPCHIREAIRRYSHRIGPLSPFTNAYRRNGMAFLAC
Summary of the method: as §1

[3] = biological target: T3, CDKN2AIP_C516 (Homo sapiens, UniProt Q9NXV6)
T3 construct: endogenous in cells; host or cells: 22Rv1
T3 sequence (Q9NXV6 1-580): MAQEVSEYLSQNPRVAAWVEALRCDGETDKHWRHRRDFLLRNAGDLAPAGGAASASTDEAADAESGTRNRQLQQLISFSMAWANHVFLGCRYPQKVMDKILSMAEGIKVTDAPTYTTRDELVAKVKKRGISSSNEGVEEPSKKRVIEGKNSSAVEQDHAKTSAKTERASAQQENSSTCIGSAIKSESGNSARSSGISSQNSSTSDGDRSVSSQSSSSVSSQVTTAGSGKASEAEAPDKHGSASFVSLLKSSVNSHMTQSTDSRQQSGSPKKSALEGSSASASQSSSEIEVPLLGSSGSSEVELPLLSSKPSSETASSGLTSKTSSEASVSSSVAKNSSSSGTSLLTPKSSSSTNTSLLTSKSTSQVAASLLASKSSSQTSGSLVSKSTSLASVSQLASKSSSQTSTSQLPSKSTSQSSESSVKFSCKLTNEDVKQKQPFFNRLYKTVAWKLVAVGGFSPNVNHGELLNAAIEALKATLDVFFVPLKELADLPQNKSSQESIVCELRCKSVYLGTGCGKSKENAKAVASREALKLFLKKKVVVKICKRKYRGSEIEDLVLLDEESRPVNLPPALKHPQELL
Summary of the method: as §1

[4] = biological target: T4, FXYD3_C63 (Homo sapiens, UniProt Q14802)
T4 construct: endogenous in cells; host or cells: 22Rv1
T4 sequence (Q14802 21-87): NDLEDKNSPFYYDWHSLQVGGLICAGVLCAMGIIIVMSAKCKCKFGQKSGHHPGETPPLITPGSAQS
Summary of the method: as §1

% engagement BLOC1S2_C41 [1] | % engagement SUPT3H_C268 [2] | % engagement CDKN2AIP_C516 [3] | % engagement FXYD3_C63 [4] | Compound
66.5% | 70.5% | 18.75% | 71% | C=CC(=O)N1C[C@H](c2ccc(Br)cc2)[C@H]1C(=O)Nc1cccc2cccnc12 [MY-3B, (2S,3S)-1-acryloyl-3-(4-bromophenyl)-N-(quinolin-8-yl)azetidine-2-carboxamide]
70% | 34.5% | 24% | 52.5% | C=CC(=O)N1C[C@H](c2ccc(Br)cc2)[C@@H]1C(=O)Nc1cccc2cccnc12 [MY-1B, (2R,3S)-1-acryloyl-3-(4-bromophenyl)-N-(quinolin-8-yl)azetidine-2-carboxamide]
3.5% | 62.5% | 12.75% | 43.5% | C=CC(=O)N1C[C@H](c2ccc(Br)cc2)[C@H]1C(=O)Nc1cccc2cccnc12 [MY-3A, (2S,3S)-1-acryloyl-3-(4-bromophenyl)-N-(quinolin-8-yl)azetidine-2-carboxamide]
6% | 27% | 66.5% | 48.5% | C=CC(=O)N1C[C@@H](c2ccc(Br)cc2)[C@H]1C(=O)Nc1cccc2cccnc12 [MY-1A, (2S,3R)-1-acryloyl-3-(4-bromophenyl)-N-(quinolin-8-yl)azetidine-2-carboxamide]
